This note sets out measurements from patent publication US20080214537A1, “BRIDGED PHENANTHRIDINES” (CARA THERAPEUTICS, INC., priority 2007, published 2008).

Bounds are passed on as bounds.

As usually defined, the EC50 is the midpoint of the concentration-response curve. Higher therefore signals a less potent agent.

For experiment [1], the target named is human CB1 receptor (hCB1) (Homo sapiens, UniProt P21554). The experiment in a line: cAMP assay (LANCE TR-FRET) in CHO-K1 cells expressing hCB1. It counts as cell-based. The conditions noted are these: activity on hCB1 represents inverse agonism; for EC50: CHO-K1 cells stably expressing hCB1, intracellular cAMP, NKH-477 prestimulated; for hCB1 % Max Range: percent of range defined by CP55,940 (1 μM = 100%); for Emax: CHO-K1, percent of range defined by CP55,940 (1 μM = 100%), read-out: hCB1 % Max Range. The method, then: (§1) The ability of compounds to act as agonists or inverse agonists at human CB2 and CB1 receptors (hCB2, hCB1, respectively) was determined by measuring changes in intracellular cAMP levels. Chinese Hamster Ovary (CHO-K1) cell lines stably expressing hCB2 (Genebank: X74328) or hCB1 (Genebank: X54937) were purchased from Euroscreen (Gosselies, Belgium).
human CB1 receptor (hCB1), sequence (P21554 whole entry): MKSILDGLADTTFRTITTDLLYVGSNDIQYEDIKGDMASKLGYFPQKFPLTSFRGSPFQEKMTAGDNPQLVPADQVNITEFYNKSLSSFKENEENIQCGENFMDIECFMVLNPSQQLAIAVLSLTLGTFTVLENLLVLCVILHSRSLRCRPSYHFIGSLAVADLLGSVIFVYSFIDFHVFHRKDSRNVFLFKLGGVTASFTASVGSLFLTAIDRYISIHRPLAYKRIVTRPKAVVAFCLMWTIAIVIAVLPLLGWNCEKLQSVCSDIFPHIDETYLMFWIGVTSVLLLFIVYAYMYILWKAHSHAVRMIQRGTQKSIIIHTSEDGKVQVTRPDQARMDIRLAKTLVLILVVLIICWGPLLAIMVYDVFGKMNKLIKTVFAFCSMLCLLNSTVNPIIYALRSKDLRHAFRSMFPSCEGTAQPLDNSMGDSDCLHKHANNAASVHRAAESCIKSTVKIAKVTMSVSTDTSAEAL
(§2) Cell lines were grown in suspension in EX-CELL 302 CHO Serum-free medium (Sigma, catalog #14324C) supplemented with 1% Fetal Bovine Serum, glutamine and with or without non-essential amino-acids under 0.4 mg/mL G418 selection.
(§3) Receptor mediated responses were determined by measuring changes in intracellular cAMP using LANCE cAMP detection kit (catalog #AD0264, PerkinElmer, Wellesley, Mass.) based on time-resolved fluorescence resonance energy transfer (TR-FRET). Changes in cAMP were determined in cells pre-incubated with IBMX (isobutyl methylxanthine) and prestimulated with NKH-477 (a water soluble forskolin derivative, catalog #1603, Tocris, Ellisville, Mo.) to increase basal cAMP levels as detailed below.
(§4) On the day of the experiment, cells were spun at low speed for 5 min at room temperature. The supernatant was removed and cells were resuspended in stimulation buffer (Hanks Buffered Salt Solution/5 mM HEPES, containing 0.5 mM IBMX (catalog #17018, Sigma) and 0.02% BSA (PerkinElmer, catalog #CR84-100)). Cell clumps were removed by filtering through cell strainer 40 μm (BD Falcon, Discovery Labware, Bedford, Mass.) and diluted to 2×10^5 cells/mL. Antibody supplied with the LANCE cAMP immunoassay kit was then added according to the manufacturer's instructions. An aliquot of cells was taken for un-induced controls. To the remaining cells was added NKH-477 (a water soluble forskolin derivative, Tocris catalog #1603) to a final concentration of 2-8 μM. Cells were then incubated for either 25 or 30 min at room temperature prior to adding to Proxiplates containing test compounds (final DMSO concentration was less than 0.5%) with a Multidrop bulk dispenser, followed by a sixty minute incubation at room temperature. The response was stopped by addition of the detection mix supplied with the LANCE kit.
(§5) The reagents were allowed to equilibrate for three hours prior to reading on an Envision multi-mode detector (PerkinElmer). TR-FRET was measured using a 330-380 nm excitation filter, 615 and 665 nm emission filters, dichroic mirror 380 nm and Z=1 mm.
(§6) Cyclic AMP concentrations in each well were back-calculated from a cAMP standard curve run concurrently during each assay. Each plate contained 16 wells of forskolin stimulated cells and 16 wells of forskolin plus CP55,940-treated. CP55,940-treated cells were treated with CP55,940 (Tocris catalog #0949) at 1 μM and the maximal response was used as the full range (100%) standard. WIN55,212 (Tocris catalog #1038) was used as an internal standard. Concentrations of cAMP were expressed as a percent of the difference of these two groups of wells. Concentration-response data including EC50 (the concentration of compound producing 50% of the maximal response) and intrinsic activity (the percent maximal activation compared to full activation by CP55,940) were determined using a four-parameter non-linear regression algorithm (Xlfit equation 251, IDBS).
(In general: Changes in cAMP serve as a functional read-out for many G protein-coupled receptors.)

Experiment [2] addresses human CB2 receptor (hCB2) (Homo sapiens, UniProt P34972). The experiment in a line: cAMP assay (LANCE TR-FRET) in CHO-K1 cells expressing hCB2. The experiment is classed as cell-based. The note with it: for Emax: CHO-K1, read-out: hCB2 % Max Range; for EC50: CHO-K1 cells stably expressing hCB2, intracellular cAMP, NKH-477 prestimulated, average of at least three replicates. The method, then:
as §1, §2, §3, §4, §5
as §6, with “IDBS). Assays were performed with at least three replicates per compound and averaged results for the several compounds of the invention are shown in Table I.” for “IDBS).”

Setting [3] is: intrinsic activity: percent maximal activation compared to full activation by CP55,940 (1 μM = 100%).

human CB2 receptor (hCB2), sequence (P34972 whole entry): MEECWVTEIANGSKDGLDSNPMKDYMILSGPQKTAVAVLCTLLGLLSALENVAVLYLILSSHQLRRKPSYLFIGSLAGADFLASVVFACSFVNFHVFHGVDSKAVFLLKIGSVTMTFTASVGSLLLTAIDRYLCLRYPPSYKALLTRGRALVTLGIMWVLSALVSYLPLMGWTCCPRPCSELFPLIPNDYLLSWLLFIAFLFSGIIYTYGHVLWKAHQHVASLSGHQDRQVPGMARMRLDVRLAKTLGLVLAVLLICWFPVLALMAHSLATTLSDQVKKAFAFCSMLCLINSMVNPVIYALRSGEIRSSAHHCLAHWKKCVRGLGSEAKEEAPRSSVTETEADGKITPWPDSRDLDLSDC

As for `CC(=O)Nc1ccc2c(c1)C1C3CCC(C3)C1C(c1ccc(C)cc1)N2` (single isomer, unassigned) [(25a), Bridged N-(6-p-tolyl-5,6,6a,7,8,9,10,10a-octahydrophenanthridin-2-yl)acetamide], in experiment [1], the EC50 is 3280 nM and the “hCB1 % Max Range” value amounted to 78%. In experiment [2] (setting [3]), the Emax is less than 40%. This compound also showed an EC50 in experiment [2] of more than 10000 nM.
In the case of `CC(=O)Nc1ccc2c(c1)C1C3CCC(C3)C1C(c1ccc(C)cc1)N2` (single isomer, unassigned) [(25b), Bridged N-(6-p-tolyl-5,6,6a,7,8,9,10,10a-octahydrophenanthridin-2-yl)acetamide], in experiment [1], the EC50 is 3540 nM and the “hCB1 % Max Range” value is 107%. The same compound showed an EC50 in experiment [2] of more than 10000 nM. In experiment [2] (setting [3]), the “hCB2 % Max Range” value is “N/A (N/A: Response <40% assay range)”.
Take `CCCNC(=S)Nc1ccc2c(c1)C1C3CCC(C3)C1C(c1ccccc1)N2` (stereo not drawn) [(6), Bridged 1-propyl-3-(phenyl-5,6,6a,7,8,9,10,10a-octahydrophenanthridin-2-yl)thiourea]: the Emax in experiment [1] is 53%; in experiment [2] (setting [3]), 76%. Besides, the EC50 in experiment [1] is 1860 nM; in experiment [2], 99.8 nM.
Taken in the same sequence, the figures for `CCCNC(=O)Nc1ccc2c(c1)C1C3CCC(C3)C1C(c1ccc(C)cc1)N2` (stereo not drawn) [(7), Bridged 1-propyl-3-(6-p-tolyl-5,6,6a,7,8,9,10,10a-octahydrophenanthridin-2-yl)urea] were less than 40%, less than 40%, more than 10000 nM and more than 10000 nM.
As for `CCCNC(=S)Nc1ccc2c(c1)C1C3CCC(C3)C1C(c1ccc(C)cc1)N2` (stereo not drawn) [(8), Bridged 1-propyl-3-(6-p-tolyl-5,6,6a,7,8,9,10,10a-octahydrophenanthridin-2-yl)thiourea], the Emax is 63% in experiment [1] and less than 40% in experiment [2] (setting [3]). Further, the EC50 in experiment [1] is 2040 nM; in experiment [2], more than 10000 nM.
`O=S(=O)(c1ccc2c(c1)C1C3CCC(C3)C1C(c1c(Cl)cccc1Cl)N2)N1CCCCC1` (stereo not drawn) [(9), Bridged 6-(2,6-dichlorophenyl)-2-(piperidin-1-ylsulfonyl)-5,6,6a,7,8,9,10,10a-octahydrophenanthridine]: the Emax was less than 40% in experiment [1] and 75% in experiment [2] (setting [3]). The EC50 in experiment [1] is more than 10000 nM; in experiment [2], 79.4 nM.
As for `Cc1ccc(C2Nc3ccc(S(=O)(=O)N4CCCCC4)cc3C3C4CCC(C4)C23)cc1` (stereo not drawn) [(10), Bridged 2-(piperidin-1-ylsulfonyl)-6-p-tolyl-5,6,6a,7,8,9,10,10a-octahydrophenanthridine], the Emax in experiment [1] was less than 40%; in experiment [2] (setting [3]) it was 98%. Moreover, the results for the EC50 in experiment [1] and in experiment [2] were more than 10000 nM and 21 nM, respectively.
The matching figures for `CN(C)S(=O)(=O)c1ccc2c(c1)C1C3CCC(C3)C1C(c1ccccc1)N2` (stereo not drawn) [(11), Bridged N,N-dimethyl-6-phenyl-5,6,6a,7,8,9,10,10a-octahydrophenanthridine-2-sulfonamide]: less than 40%, 99%, more than 10000 nM and 0.98 nM.
Taken in the same sequence, the figures for `COCCC(=O)Nc1ccc2c(c1)C1C3CCC(C3)C1C(c1ccccc1)N2` (stereo not drawn) [(12), Bridged 3-methoxy-N-(6-phenyl-5,6,6a,7,8,9,10,10a-octahydrophenanthridin-2-yl)propanamide] were less than 40%, 82%, more than 10000 nM and 12.4 nM.
Take `O=C(Nc1ccc2c(c1)C1C3CCC(C3)C1C(c1ccccc1)N2)c1cocn1` (stereo not drawn) [(13), Bridged N-(6-phenyl-5,6,6a,7,8,9,10,10a-octahydrophenanthridin-2-yl)oxazole-4-carboxamide]: the figures for the Emax in experiment [1] and in experiment [2] (setting [3]) were less than 40% and 57%, respectively. The EC50 was more than 10000 nM in experiment [1] and 680 nM in experiment [2].
For the compound `O=C(CC1CCCO1)Nc1ccc2c(c1)C1C3CCC(C3)C1C(c1ccccc1)N2` (stereo not drawn) [(14), Bridged N-(6-phenyl-5,6,6a,7,8,9,10,10a-octahydrophenanthridin-2-yl)-2-(tetrahydrofuran-2-yl) acetamide], the Emax was less than 40% in experiment [1] and 92% in experiment [2] (setting [3]). In addition, the figures for the EC50 in experiment [1] and in experiment [2] were more than 10000 nM and 9.1 nM, respectively.
Taken in the same sequence, the figures for `COCCC(=O)Nc1ccc2c(c1)C1C3CCC(C3)C1C(c1ccc(C)cc1)N2` (stereo not drawn) [(15), Bridged 3-methoxy-N-(6-p-tolyl-5,6,6a,7,8,9,10,10a-octahydrophenanthridin-2-yl)propanamide] were 56%, less than 40%, 2360 nM and more than 10000 nM.
In the case of `Cc1ccc(C2Nc3ccc(NC(=O)CC4CCCO4)cc3C3C4CCC(C4)C23)cc1` (stereo not drawn) [(16), Bridged 2-(tetrahydrofuran-2-yl)-N-(6-p-tolyl-5,6,6a,7,8,9,10,10a-octahydrophenanthridin-2-yl)acetamide], the Emax in experiment [1] was less than 40%; in experiment [2] (setting [3]), 52%. In addition, the EC50 is more than 10000 nM in experiment [1] and 102 nM in experiment [2].
Taken in the same sequence, the figures for `c1ccc(C2Nc3ccc(N4CCOCC4)cc3C3C4CCC(C4)C23)cc1` (stereo not drawn) [(17), Bridged 4-(6-phenyl-5,6,6a,7,8,9,10,10a-octahydrophenanthridin-2-yl)morpholine] were less than 40%, 94%, more than 10000 nM and 140 nM.
Regarding `Cc1ccc(C2Nc3ccc(N4CCOCC4)cc3C3C4CCC(C4)C23)cc1` (stereo not drawn) [(18), Bridged 4-(6-p-tolyl-5,6,6a,7,8,9,10,10a-octahydrophenanthridin-2-yl)morpholine], the Emax in experiment [1] and in experiment [2] (setting [3]) was less than 40% in each case. Also, the EC50 in experiment [1] and in experiment [2] was more than 10000 nM in each case.
On to `O=C(Nc1ccc2c(c1)C1C3CCC(C3)C1C(c1ccccc1)N2)C1CC1` (stereo not drawn) [(19), Bridged N-(6-phenyl-5,6,6a,7,8,9,10,10a-octahydrophenanthridin-2-yl)cyclopropanecarboxamide], for which the Emax stood at 53% in experiment [1] and 49% in experiment [2] (setting [3]). Further, the EC50 in experiment [1] was found to be 1700 nM; in experiment [2] it was 187 nM.
The matching figures for `O=C(Nc1ccc2c(c1)C1C3CCC(C3)C1C(c1c(Cl)cccc1Cl)N2)C1CC1` (stereo not drawn) [(20), Bridged N-(6-(2,6-dichlorophenyl)-5,6,6a,7,8,9,10,10a-octahydrophenanthridin-2-yl)cyclopropanecarboxamide]: less than 40%, less than 40%, more than 10000 nM and more than 10000 nM.
The matching figures for `CCC1Nc2ccc(NC(=O)C3CC3)cc2C2C3CCC(C3)C12` (stereo not drawn) [(21), Bridged N-(6-ethyl-5,6,6a,7,8,9,10,10a-octahydrophenanthridin-2-yl)cyclopropanecarboxamide]: less than 40%, 84%, more than 10000 nM and 1200 nM.
